From PubChem BioAssay (NCI)
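Compound exposure: 48 hours, 5 concentrations, 96-well plates. TGI: concentration producing complete growth inhibition.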

Tests used:
Assay in all cases: DTP human tumour cell line panel, 48 h
OVCAR-8 ovarian = tested on: OVCAR-8 ovarian
HCC-2998 colon = tested on: HCC-2998 colon
DMS 114 small cell lung = tested on: DMS 114 small cell lung
SF-295 CNS = tested on: SF-295 CNS
CCRF-CEM leukemia = tested on: CCRF-CEM leukemia
RXF 393 renal = tested on: RXF 393 renal
SK-MEL-2 melanoma = tested on: SK-MEL-2 melanoma
HCT-116 colon = tested on: HCT-116 colon
KM12 colon = tested on: KM12 colon
OVCAR-5 ovarian = tested on: OVCAR-5 ovarian
786-0 renal = tested on: 786-0 renal
UACC-62 melanoma = tested on: UACC-62 melanoma
U251 CNS = tested on: U251 CNS
RPMI-8226 leukemia = tested on: RPMI-8226 leukemia
CAKI-1 renal = tested on: CAKI-1 renal
NCI-H226 lung = tested on: NCI-H226 lung
M14 melanoma = tested on: M14 melanoma
NCI-H23 lung = tested on: NCI-H23 lung
UO-31 renal = tested on: UO-31 renal
EKVX NSCLC = tested on: EKVX NSCLC
MALME-3M melanoma = tested on: MALME-3M melanoma
SNB-75 CNS = tested on: SNB-75 CNS
SK-MEL-5 melanoma = tested on: SK-MEL-5 melanoma
SK-MEL-28 melanoma = tested on: SK-MEL-28 melanoma
HL-60(TB) leukemia = tested on: HL-60(TB) leukemia
HOP-62 NSCLC = tested on: HOP-62 NSCLC
SF-268 CNS = tested on: SF-268 CNS
SNB-19 CNS = tested on: SNB-19 CNS
SF-539 CNS = tested on: SF-539 CNS
OVCAR-3 ovarian = tested on: OVCAR-3 ovarian
TK-10 renal = tested on: TK-10 renal
LOX IMVI melanoma = tested on: LOX IMVI melanoma
HCT-15 colon = tested on: HCT-15 colon
KM20L2 colon = tested on: KM20L2 colon
COLO 205 colon = tested on: COLO 205 colon
SK-OV-3 ovarian = tested on: SK-OV-3 ovarian
OVCAR-4 ovarian = tested on: OVCAR-4 ovarian
A498 renal = tested on: A498 renal
K-562 leukemia = tested on: K-562 leukemia
NCI-H522 lung = tested on: NCI-H522 lung
SW-620 colon = tested on: SW-620 colon
UACC-257 melanoma = tested on: UACC-257 melanoma
NCI-H460 lung = tested on: NCI-H460 lung
SN12C renal = tested on: SN12C renal
SNB-78 CNS = tested on: SNB-78 CNS
SR leukemia = tested on: SR leukemia
DMS 273 small cell lung = tested on: DMS 273 small cell lung
IGROV1 ovarian = tested on: IGROV1 ovarian
MOLT-4 leukemia = tested on: MOLT-4 leukemia
HT29 colon = tested on: HT29 colon
A549 NSCLC = tested on: A549 NSCLC
HOP-92 NSCLC = tested on: HOP-92 NSCLC
ACHN renal = tested on: ACHN renal
M19-MEL melanoma = tested on: M19-MEL melanoma
LXFL 529 NSCLC = tested on: LXFL 529 NSCLC
DLD-1 colon = tested on: DLD-1 colon

## CN(C)C(=S)N=C(Nc1ccccc1)Nc1ccccc1
OVCAR-8 ovarian
  TGI: > 100 µM
HCC-2998 colon
  TGI: > 100 µM
DMS 114 small cell lung
  TGI: > 100 µM
SF-295 CNS
  TGI: > 100 µM
CCRF-CEM leukemia
  TGI: > 100 µM
RXF 393 renal
  TGI: > 100 µM
SK-MEL-2 melanoma
  TGI: > 100 µM
HCT-116 colon
  TGI: > 100 µM
KM12 colon
  TGI: > 100 µM
OVCAR-5 ovarian
  TGI: > 100 µM
786-0 renal
  TGI: > 100 µM
UACC-62 melanoma
  TGI: > 100 µM
U251 CNS
  TGI: > 100 µM
RPMI-8226 leukemia
  TGI: > 100 µM
CAKI-1 renal
  TGI: > 100 µM
NCI-H226 lung
  TGI: > 100 µM
M14 melanoma
  TGI: > 100 µM
NCI-H23 lung
  TGI: > 100 µM
UO-31 renal
  TGI: > 100 µM
EKVX NSCLC
  TGI: > 100 µM
MALME-3M melanoma
  TGI: > 100 µM
SNB-75 CNS
  TGI: > 100 µM
SK-MEL-5 melanoma
  TGI: > 100 µM
SK-MEL-28 melanoma
  TGI: > 100 µM
HL-60(TB) leukemia
  TGI: > 100 µM
HOP-62 NSCLC
  TGI: > 100 µM
SF-268 CNS
  TGI: > 100 µM
SNB-19 CNS
  TGI: > 100 µM
SF-539 CNS
  TGI: > 100 µM
OVCAR-3 ovarian
  TGI: > 100 µM
TK-10 renal
  TGI: > 100 µM
LOX IMVI melanoma
  TGI: > 100 µM
HCT-15 colon
  TGI: > 100 µM
KM20L2 colon
  TGI: > 100 µM
COLO 205 colon
  TGI: > 100 µM
SK-OV-3 ovarian
  TGI: > 100 µM
OVCAR-4 ovarian
  TGI: > 100 µM
A498 renal
  TGI: > 100 µM
K-562 leukemia
  TGI: > 100 µM
NCI-H522 lung
  TGI: > 100 µM
SW-620 colon
  TGI: > 100 µM
UACC-257 melanoma
  TGI: > 100 µM
NCI-H460 lung
  TGI: > 100 µM
SN12C renal
  TGI: > 100 µM
SNB-78 CNS
  TGI: > 100 µM
SR leukemia
  TGI: > 100 µM
DMS 273 small cell lung
  TGI: > 100 µM
IGROV1 ovarian
  TGI: > 100 µM
MOLT-4 leukemia
  TGI: > 100 µM
HT29 colon
  TGI: > 100 µM
A549 NSCLC
  TGI: > 100 µM
HOP-92 NSCLC
  TGI: > 100 µM
ACHN renal
  TGI: > 100 µM
M19-MEL melanoma
  TGI: > 100 µM

## CC(C)CCS(=O)(=O)OCCCCOS(=O)(=O)CCC(C)C
OVCAR-8 ovarian
  TGI: > 100 µM
HCC-2998 colon
  TGI: > 100 µM
DMS 114 small cell lung
  TGI: > 100 µM
SF-295 CNS
  TGI: > 100 µM
CCRF-CEM leukemia
  TGI: > 100 µM
LXFL 529 NSCLC
  TGI: > 100 µM
RXF 393 renal
  TGI: > 100 µM
HCT-116 colon
  TGI: > 100 µM
KM12 colon
  TGI: > 100 µM
786-0 renal
  TGI: > 100 µM
UACC-62 melanoma
  TGI: > 100 µM
U251 CNS
  TGI: > 100 µM
RPMI-8226 leukemia
  TGI: > 100 µM
NCI-H226 lung
  TGI: > 100 µM
M14 melanoma
  TGI: 29.6 µM
NCI-H23 lung
  TGI: > 100 µM
UO-31 renal
  TGI: > 100 µM
EKVX NSCLC
  TGI: > 100 µM
MALME-3M melanoma
  TGI: > 100 µM
SNB-75 CNS
  TGI: > 100 µM
SK-MEL-28 melanoma
  TGI: > 100 µM
HL-60(TB) leukemia
  TGI: > 100 µM
HOP-62 NSCLC
  TGI: 26.9 µM
SF-268 CNS
  TGI: > 100 µM
SNB-19 CNS
  TGI: > 100 µM
SF-539 CNS
  TGI: > 100 µM
OVCAR-3 ovarian
  TGI: 29.9 µM
TK-10 renal
  TGI: > 100 µM
LOX IMVI melanoma
  TGI: > 100 µM
HCT-15 colon
  TGI: > 100 µM
KM20L2 colon
  TGI: > 100 µM
COLO 205 colon
  TGI: > 100 µM
SK-OV-3 ovarian
  TGI: > 100 µM
K-562 leukemia
  TGI: > 100 µM
NCI-H522 lung
  TGI: > 100 µM
SW-620 colon
  TGI: > 100 µM
UACC-257 melanoma
  TGI: > 100 µM
NCI-H460 lung
  TGI: > 100 µM
SN12C renal
  TGI: > 100 µM
SNB-78 CNS
  TGI: > 100 µM
SR leukemia
  TGI: > 100 µM
DMS 273 small cell lung
  TGI: > 100 µM
IGROV1 ovarian
  TGI: > 100 µM
MOLT-4 leukemia
  TGI: > 100 µM
HT29 colon
  TGI: > 100 µM
A549 NSCLC
  TGI: > 100 µM
ACHN renal
  TGI: > 100 µM
DLD-1 colon
  TGI: > 100 µM
M19-MEL melanoma
  TGI: > 100 µM
